Experimental data reported in publication PMC11726634, “Probing the Histamine H1 Receptor Binding Site to Explore Ligand Binding Kinetics” (Journal of Medicinal Chemistry, 2024).
Counter-ions that a name gives are not always drawn. Like-named read-outs stand apart in the source and are kept apart here.

Legend:
[1] = target: T1, human H1R (Homo sapiens, UniProt P35367); experiment: [3H]-mepyramine competition binding (radioligand displacement, 4 h) on HEK293T cell homogenates; details: for pKi: [3H]mepyramine displacement curves after 4 h incubation, HEK293T cell homogenate expressing H1R, 25 °C, mean and SEM, N ≥ 3
T1 construct: expressed in transfected cells; host or cells: HEK293T cells, transient transfection with pcDEF3, used as cell homogenate
T1 sequence (P35367 whole entry): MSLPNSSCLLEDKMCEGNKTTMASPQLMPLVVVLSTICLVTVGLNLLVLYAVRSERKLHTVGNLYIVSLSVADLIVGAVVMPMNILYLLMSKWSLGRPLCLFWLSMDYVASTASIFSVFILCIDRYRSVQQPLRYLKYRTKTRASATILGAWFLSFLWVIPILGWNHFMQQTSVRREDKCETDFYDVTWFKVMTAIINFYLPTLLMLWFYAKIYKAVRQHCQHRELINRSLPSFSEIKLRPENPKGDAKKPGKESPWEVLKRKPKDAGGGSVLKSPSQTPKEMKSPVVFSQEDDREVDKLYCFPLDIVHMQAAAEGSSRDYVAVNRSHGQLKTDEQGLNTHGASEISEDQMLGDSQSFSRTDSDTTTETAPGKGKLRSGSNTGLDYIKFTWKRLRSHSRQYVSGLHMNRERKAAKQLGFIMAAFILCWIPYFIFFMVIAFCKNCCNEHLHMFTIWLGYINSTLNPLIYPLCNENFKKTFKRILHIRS
Procedure: Protein content of membrane homogenates was determined using a BCA protein assay. […] Membrane preparation, termination of the binding reaction and quantifying radioactivity as described here, were performed for all binding experiments.Total binding and nonspecific binding (i.e., in the presence of mianserin) was analyzed by nonlinear regression using eqs 1 (nonspecific binding) and 2 (total binding).
These values were converted to Ki values using the Cheng–Prusoff equation.[24]

[2] = target: T1, human H1R; experiment: Competition association binding with [3H]-mepyramine (Motulsky and Mahan model); details: for KE (kinetic efficiency = RT/N heavy atoms): RT divided by number of heavy atoms; for pKD,calc: calculated from kon and koff of individual experiments
Procedure: Binding in the presence of mianserin was assumed to be the baseline (i.e., t = 0 min). Binding over time was baseline corrected and then analyzed by nonlinear regression using the Motulsky and Mahan model[25] (eq 5). This model assumes that both the radioligand and the unlabeled ligand bind competitively to the same binding site according to a one-step binding mechanism.

[3] = competitive binding of [3H]mepyramine over time, unlabeled ligand at ±10 times Ki, 25 °C, mean and SEM, N ≥ 3, read-out: koff (converted)
[4] = compared with fragment 1 (RT 2.0 min)
[5] = competitive binding of [3H]mepyramine over time, unlabeled ligand at ±10 times Ki, 25 °C, mean and SEM, N ≥ 3

Row | Molecule | pKi [1] | KE (kinetic efficiency = RT/N heavy atoms) [2] | pKD,calc ([2]; mean and SEM, N ≥ 3) | koff [2, 3] | kon ([2]; read-out: kon (converted)) | koff ([2]; read-out: koff (converted)) | increase in RT relative to 1 [2, 4] | increase in RT relative to 1 [2] | decrease of association rate constant (kon) relative to 1 ([2]; compared with 1) | koff [2, 5] | kon [2, 5] | lower binding affinity relative to 1 ([1]; compared with 1) | increase in RT compared to first-generation analog [2]
1 | O=C(O)CCCCCCCN1CCC(Oc2ccccc2Cc2ccccc2)CC1 [4f, 8-(4-(2-Benzylphenoxy)piperidin-1-yl)octanoic Acid Hydrochloride] | 7.6 ± 0.1 | 0.50 | 7.5 ± 0.0 | 0.00115 s⁻¹ | 39500 M⁻¹ s⁻¹ |  |  |  |  |  |  |  | 
2 | COc1ccc(Cc2ccccc2)c(OC2CCN(C)CC2)c1 [2e, 4-(2-Benzyl-5-methoxyphenoxy)-1-methylpiperidine Fumarate] | 7.8 ± 0.1 | 0.09 | 8.1 ± 0.1 |  | 1e+06 M⁻¹ s⁻¹ | 0.00833 s⁻¹ |  |  |  |  |  |  | 
3 | c1ccc(Cc2ccccc2OC2CCN(CCCCc3nnn[nH]3)CC2)cc1 [compound 27, 1-(4-(1H-Tetrazol-5-yl)butyl)-4-(2-benzylphenoxy)piperidine] | 8.1 ± 0.1 | 1.66 | 8.2 ± 0.02 | 0.00035 s⁻¹ | 61700 M⁻¹ s⁻¹ |  |  |  |  |  |  |  | 
4 | O=C(O)CCN1CCC(Oc2ccccc2Cc2ccccc2)CC1 [4a, 3-(4-(2-Benzylphenoxy)piperidin-1-yl)propanoic Acid Hydrochloride] | 7.5 ± 0.1 | 0.36 | 7.4 ± 0.0 | 0.00183 s⁻¹ | 48300 M⁻¹ s⁻¹ |  |  |  |  |  |  |  | 
5 | CN1CCC(Oc2cc(C(=O)O)ccc2Cc2ccccc2)CC1 [2a, 4-Benzyl-3-((1-methylpiperidin-4-yl)oxy)benzoic Acid] | <5 | 0.05 | 4.8 ± 0.1 | 0.0167 s⁻¹ | 1000 M⁻¹ s⁻¹ |  |  |  |  |  |  |  | 
6 | O=C(O)CCCCCCN1CCC(Oc2ccccc2Cc2ccccc2)CC1 [4e, 7-(4-(2-Benzylphenoxy)piperidin-1-yl)heptanoic Acid Hydrochloride] | 7.7 ± 0.2 | 0.45 | 7.5 ± 0.0 | 0.00127 s⁻¹ | 41700 M⁻¹ s⁻¹ |  |  |  |  |  |  |  | 
7 | O=C(O)CCCCN1CCC(Oc2ccccc2Cc2ccccc2)CC1 [4c, 5-(4-(2-Benzylphenoxy)piperidin-1-yl)pentanoic Acid Hydrochloride] | 7.8 ± 0.1 | 0.85 | 7.9 ± 0.1 | 0.00075 s⁻¹ | 53300 M⁻¹ s⁻¹ |  | > 10 fold |  |  |  |  |  | 
8 | CN1CCC(Oc2cc(CO)ccc2Cc2ccccc2)CC1 [2d, (4-Benzyl-3-((1-methylpiperidin-4-yl)oxy)phenyl)methanol Hemifumarate] | 8.4 ± 0.1 | 0.17 | 8.6 ± 0.0 |  | 1.63e+06 M⁻¹ s⁻¹ | 0.00417 s⁻¹ |  | 2 fold | 2 fold |  |  |  | 
9 | CN1CCC(Oc2cc(CC(=O)O)ccc2Cc2ccccc2)CC1 [2b, 2-(4-Benzyl-3-((1-methylpiperidin-4-yl)oxy)phenyl)acetic Acid] | 6.9 ± 0.1 | 0.24 | 6.8 ± 0.2 | 0.00283 s⁻¹ | 21700 M⁻¹ s⁻¹ |  |  |  |  |  |  |  | 
10 | CN1CCC(Oc2c(/C=C/C(=O)O)cccc2Cc2ccccc2)CC1 [3c, (E)-3-(3-Benzyl-2-((1-methylpiperidin-4-yl)oxy)phenyl)acrylic Acid] | 6.6 ± 0.1 | 0.12 | 6.7 ± 0.0 |  | 26700 M⁻¹ s⁻¹ |  |  |  |  |  |  |  | 
11 | CN1CCC(Oc2c(Cc3ccccc3)cccc2C(=O)O)CC1 [3a, 3-Benzyl-2-((1-methylpiperidin-4-yl)oxy)benzoic Acid] | 6.2 ± 0.1 | 0.18 | 6.3 ± 0.0 | 0.004 s⁻¹ | 8330 M⁻¹ s⁻¹ |  |  |  |  |  |  |  | 
12 | 2-(3-Benzyl-2-((1-methylpiperidin-4-yl)oxy)phenyl)acetic Acid [3b] | 7.4 ± 0.1 | 0.48 | 7.4 ± 0.0 |  |  |  |  |  |  | 0.00138 ± 6.7e-05 s⁻¹ | 2.08 ± 0.10 10^6· M^−1·min^−1 |  | 
13 | CN1CCC(Oc2cc(/C=C/C(=O)O)ccc2Cc2ccccc2)CC1 [2c, (E)-3-(4-Benzyl-3-((1-methylpiperidin-4-yl)oxy)phenyl)acrylic Acid] | 6.5 ± 0.1 | 0.69 | 7.0 ± 0.0 | 0.000917 s⁻¹ | 10300 M⁻¹ s⁻¹ |  | 9 fold |  |  |  |  |  | 
14 | O=C(O)CCCN1CCC(Oc2ccccc2Cc2ccccc2)CC1 [4b, 4-(4-(2-Benzylphenoxy)piperidin-1-yl)butanoic Acid Hydrochloride] | 7.6 ± 0.1 | 0.38 | 7.5 ± 0.0 | 0.00167 s⁻¹ | 48300 M⁻¹ s⁻¹ |  |  |  |  |  |  |  | 
15 | CN1CCC(Oc2c(CO)cccc2Cc2ccccc2)CC1 [3d, (3-Benzyl-2-((1-methylpiperidin-4-yl)oxy)phenyl)methanol] | 7.4 ± 0.0 | 0.06 | 7.6 ± 0.1 | 0.0122 s⁻¹ | 450000 M⁻¹ s⁻¹ |  |  |  |  |  |  | 10 fold | 
16 | CN(C)CC/C=C1/c2ccccc2COc2ccc(CC(=O)O)cc21 [Olopatadine, olopatadine, reference compound] |  |  |  |  |  |  |  |  |  |  |  |  | 7 fold
17 | O=C(O)CCCCCN1CCC(Oc2ccccc2Cc2ccccc2)CC1 [4d, 6-(4-(2-Benzylphenoxy)piperidin-1-yl)hexanoic Acid Hydrochloride] | 7.8 ± 0.0 | 0.61 | 7.7 ± 0.1 | 0.001 s⁻¹ | 66700 M⁻¹ s⁻¹ |  |  |  |  |  |  |  | 
